PubChem BioAssay AID1745844 (Carcinogenic Potency Database (CPDB), 2022)
Values joined by “and” are separate entries in the source; they are usually repeats but may differ in a detail not shown here. Equal values may be shown once. Active and inactive are the calls of the source. How the calls were made is not given here.

Test system: rodent lifetime carcinogenesis bioassay, tumor incidence TD50
Experiment: chronic cancer bioassays in animals – CPDB, compiled studies (AID 1745844)
Settings: inhaled; for carcinogen call: lesion: one or several types, types not named

`C=CC(=C)Cl` was tested, and the TD50 (hamster, strain Syrian Golden, females, site: any site (literature study), lesion: several types, types named in the paper, dosed 78 weeks, study length 78 weeks) was 180 mg/kg/day (inactive), the carcinogen call (hamster, strain Syrian Golden, females, site: liver, dosed 78 weeks, study length 78 weeks) was “negative (inactive)” and the carcinogen call (hamster, strain Syrian Golden, females, site: lung, dosed 78 weeks, study length 78 weeks) was “negative (inactive)”. The TD50 (hamster, strain Syrian Golden, males, site: any site (literature study), lesion: several types, types named in the paper, dosed 78 weeks, study length 78 weeks) was 110 mg/kg/day (inactive), the carcinogen call (hamster, strain Syrian Golden, males, site: liver, dosed 78 weeks, study length 78 weeks) was “negative (inactive)” and the carcinogen call (hamster, strain Syrian Golden, males, site: lung, dosed 78 weeks, study length 78 weeks) was “negative (inactive)”. It also gave a TD50 (mouse, strain B6C3F1, females, site: Harderian gland, lesion: adenoma + carcinoma, dosed 104 weeks, study length 104 weeks) of 55.2 mg/kg/day, a TD50 (mouse, strain B6C3F1, females, site: Harderian gland, lesion: adenoma, dosed 104 weeks, study length 104 weeks) of 61.3 mg/kg/day and a TD50 (mouse, strain B6C3F1, females, site: Zymbal's gland, lesion: carcinoma, dosed 104 weeks, study length 104 weeks) of 864 mg/kg/day. It also gave a TD50 (mouse, strain B6C3F1, females, site: all sites + forestomach + Harderian gland + liver + lung + mesentery + mammary gland + subcutaneous tissue + Zymbal's gland, lesion: hemangioma + hemangiosarcoma + squamous-cell carcinoma + squamous-cell papilloma + adenoma + carcinoma + hepatocellular adenoma + hepa, dosed 104 weeks, study length 104 weeks) of 4 mg/kg/day, a TD50 (mouse, strain B6C3F1, females, site: all sites, lesion: hemangioma + hemangiosarcoma, dosed 104 weeks, study length 104 weeks) of 21.5 mg/kg/day and a TD50 (mouse, strain B6C3F1, females, site: all sites, lesion: hemangioma, dosed 104 weeks, study length 104 weeks) of 134 mg/kg/day. For the same molecule, the TD50 (mouse, strain B6C3F1, females, site: all sites, lesion: hemangiosarcoma, dosed 104 weeks, study length 104 weeks) was 22.2 mg/kg/day, the TD50 (mouse, strain B6C3F1, females, site: any site (literature study), lesion: several types, types named in the paper, dosed 104 weeks, study length 104 weeks) was 3.92 mg/kg/day and the TD50 (mouse, strain B6C3F1, females, site: forestomach, lesion: squamous-cell carcinoma + squamous-cell papilloma, dosed 104 weeks, study length 104 weeks) was 332 mg/kg/day. The TD50 (mouse, strain B6C3F1, females, site: liver, lesion: hepatocellular adenoma + hepatoblastoma + hepatocellular carcinoma, dosed 104 weeks, study length 104 weeks) was 7.07 mg/kg/day, the TD50 (mouse, strain B6C3F1, females, site: liver, lesion: hepatocellular adenoma + hepatocellular carcinoma, dosed 104 weeks, study length 104 weeks) was 7.07 mg/kg/day and the TD50 (mouse, strain B6C3F1, females, site: liver, lesion: hepatocellular adenoma, dosed 104 weeks, study length 104 weeks) was 19.8 mg/kg/day. The TD50 (mouse, strain B6C3F1, females, site: liver, lesion: hepatocellular carcinoma, dosed 104 weeks, study length 104 weeks) was 15.2 mg/kg/day, the TD50 (mouse, strain B6C3F1, females, site: lung, lesion: alveolar/bronchiolar adenoma + alveolar/bronchiolar carcinoma, dosed 104 weeks, study length 104 weeks) was 5.36 mg/kg/day and the TD50 (mouse, strain B6C3F1, females, site: lung, lesion: alveolar/bronchiolar adenoma, dosed 104 weeks, study length 104 weeks) was 8.65 mg/kg/day. The TD50 (mouse, strain B6C3F1, females, site: lung, lesion: alveolar/bronchiolar carcinoma, dosed 104 weeks, study length 104 weeks) was 14.6 mg/kg/day, the TD50 (mouse, strain B6C3F1, females, site: mammary gland, lesion: adenoma + carcinoma, dosed 104 weeks, study length 104 weeks) was 65.6 mg/kg/day and the TD50 (mouse, strain B6C3F1, females, site: mammary gland, lesion: carcinoma, dosed 104 weeks, study length 104 weeks) was 75.3 mg/kg/day. The TD50 (mouse, strain B6C3F1, females, site: mesentery, lesion: hemangioma + hemangiosarcoma, dosed 104 weeks, study length 104 weeks) was 25.9 mg/kg/day, the TD50 (mouse, strain B6C3F1, females, site: mesentery, lesion: hemangiosarcoma, dosed 104 weeks, study length 104 weeks) was 32.2 mg/kg/day and the TD50 (mouse, strain B6C3F1, females, site: mesentery, lesion: sarcoma, dosed 104 weeks, study length 104 weeks) was 40 mg/kg/day. For the same molecule, the TD50 (mouse, strain B6C3F1, females, site: pituitary gland, lesion: pars distalis adenoma, dosed 104 weeks, study length 104 weeks) was 68.1 mg/kg/day, the TD50 (mouse, strain B6C3F1, females, site: subcutaneous tissue, lesion: sarcoma, dosed 104 weeks, study length 104 weeks) was 28.9 mg/kg/day and the TD50 (mouse, strain B6C3F1, females, site: uterus, lesion: endometrial stromal polyp, dosed 104 weeks, study length 104 weeks) was 133 mg/kg/day. The TD50 (mouse, strain B6C3F1, males, site: Harderian gland, lesion: adenoma + adenoma, bilateral + carcinoma, dosed 104 weeks, study length 104 weeks) was 60.9 mg/kg/day, the TD50 (mouse, strain B6C3F1, males, site: Harderian gland, lesion: adenoma + adenoma, bilateral, dosed 104 weeks, study length 104 weeks) was 79.5 mg/kg/day and the TD50 (mouse, strain B6C3F1, males, site: all sites + forestomach + Harderian gland + lung, lesion: hemangioma + hemangiosarcoma + squamous-cell carcinoma + squamous-cell papilloma + adenoma + adenoma, bilateral + carcinoma + alveolar, dosed 104 weeks, study length 104 weeks) was 8.68 mg/kg/day. The TD50 (mouse, strain B6C3F1, males, site: all sites, lesion: hemangioma + hemangiosarcoma, dosed 104 weeks, study length 104 weeks) was 17.9 mg/kg/day and 21.3 mg/kg/day, the TD50 (mouse, strain B6C3F1, males, site: all sites, lesion: hemangiosarcoma, dosed 104 weeks, study length 104 weeks) was 19.1 mg/kg/day and 23.8 mg/kg/day and the TD50 (mouse, strain B6C3F1, males, site: any site (literature study), lesion: several types, types named in the paper, dosed 104 weeks, study length 104 weeks) was 28.4 mg/kg/day. The TD50 (mouse, strain B6C3F1, males, site: forestomach, lesion: squamous-cell carcinoma + squamous-cell papilloma, dosed 104 weeks, study length 104 weeks) was 291 mg/kg/day, the TD50 (mouse, strain B6C3F1, males, site: forestomach, lesion: squamous-cell papilloma, dosed 104 weeks, study length 104 weeks) was 335 mg/kg/day and the TD50 (mouse, strain B6C3F1, males, site: kidney, lesion: tubule adenoma, dosed 104 weeks, study length 104 weeks) was 301 mg/kg/day and 129 mg/kg/day. It also gave a TD50 (mouse, strain B6C3F1, males, site: liver, lesion: hemangiosarcoma, dosed 104 weeks, study length 104 weeks) of 123 mg/kg/day, a TD50 (mouse, strain B6C3F1, males, site: liver, lesion: hepatoblastoma + hepatocellular carcinoma, dosed 104 weeks, study length 104 weeks) of 19.5 mg/kg/day and a TD50 (mouse, strain B6C3F1, males, site: liver, lesion: hepatocellular adenoma + hepatoblastoma + hepatocellular carcinoma, dosed 104 weeks, study length 104 weeks) of 39.9 mg/kg/day. The TD50 (mouse, strain B6C3F1, males, site: liver, lesion: hepatocellular adenoma + hepatocellular carcinoma, dosed 104 weeks, study length 104 weeks) was 42.5 mg/kg/day, the TD50 (mouse, strain B6C3F1, males, site: liver, lesion: hepatocellular adenoma, dosed 104 weeks, study length 104 weeks) was 71.9 mg/kg/day and the TD50 (mouse, strain B6C3F1, males, site: liver, lesion: hepatocellular carcinoma, dosed 104 weeks, study length 104 weeks) was 21.6 mg/kg/day.
